A word on the melting point: it is the temperature, or range, at which the solid turns liquid.

These results are taken from US20040053996A1, “Use of oxabicyclo[2.2.1]heptane derivatives as pesticidal agents” (priority 2000, published 2004).

In data set [1] the test system is greenhouse red spider mite (Tetranychus urticae). Briefly: Tetranychus test (OP-resistant/dip treatment). Format: in vivo. To be noted: 1000 ppm, infested bean plants (Phaseolus vulgaris) dipped, OP-resistant mites. As for the experimental part: Tetranychus Test (OP Resistant/Dip Treatment)
To produce a suitable preparation of active compound, 1 part by weight of active compound is mixed with the stated amount of solvent and the stated amount of emulsifier, and the concentrate is diluted with emulsifier-containing water to the desired concentration.
Bean plants (Phaseolus vulgaris) which are heavily infested by all stages of the greenhouse red spider mite (Tetranychus urticae) are dipped into a solution of the active compound at the desired concentration.
After the desired period of time, the effect in % in determined. 100% means that all spider mites have been killed; 0% means that none of the spider mites have been killed.

A further data set has as its system Myzus persicae. Briefly: Myzus test. To be noted: 100 ppm, infested cabbage leaves (Brassica oleracea) dipped. Format: in vivo. As for the experimental part:
(§1) To produce a suitable preparation of active compound, 1 part by weight of active compound is mixed with the stated amounts of solvent and of emulsifier, and the concentrate is diluted with emulsifier—containing water to the desired concentration.
Cabbage leaves (Brassica oleracea) which are heavily infested by Myzus persicae are dipped into a preparation of active compound of the desired concentration.
After the desired period of time, the kill in % is determined. 100% means that all aphids have been killed; (0)% means that none of the aphids nave been killed.

Data set [2] has as its system larvae of Phaedon cochleariae. Briefly: Phaedon larvae test. Format: in vivo. To be noted: 1000 ppm, cabbage leaves (Brassica oleracea) dipped, infested with larvae. As for the experimental part:
as §1
Cabbage leaves (Brassica oleracea) are treated by being dipped into the preparation of active compound of the desired concentration and are infested with larvae of Phaedon cochleariae while the leaves are still moist.
After the desired period of time, the kill in % is determined. 100% means that all beetle larvae have been killed; 0% means that no beetle larvae have been killed.

The next data set concerns Meloidogyne incognita. Briefly: Meloidogyne incognita test. Format: in vivo. Particulars: 20 ppm; sand with egg-larvae suspension and lettuce seeds; nematocidal activity from gall formation, 100% = no galls. As for the experimental part:
To produce a suitable preparation of active compound, 1 part by weight of active compound is mixed with the stated amounts of solvent and of emulsifier, and the concentrate is diluted with water to the desired concentration.
Containers are filled with sand, preparation of active compound, a suspension of egg-larvae of Meloidogyne incognita and with lettuce seeds. The lettuce seeds germinate and the plants are allowed to grow. Galls are formed on the roots.
After the desird period of time, the nematocidal activity is determined on basis of the formation of galls and is calculated in %.
An activity of 100% means that no galls have been found, an activity of 0% means that the number of the galls at the treated plants corresponds to the number of galls in the untreated control plants.

In data set [3] the test system is Erysiphe graminis f. sp.hordei. Briefly: Erysiphe test (barley)/induction of resistance. Format: in vivo. To be noted: young barley plants sprayed at 750 g/ha; inoculated 4 days after treatment; evaluated 7 days after inoculation; 100% = no disease. As for the experimental part:
Erysiphe Test (Barley)/Induction of Resistance
To produce a suitable preparation of active compound, 1 part by weight of active compound is mixed with the stated amount of solvent, and the concentrate is diluted with water and the stated amount of emulsifier to the desired concentration.
To test for resistance-inducing activity, young barley plants are sprayed with the preparation of active compound at the stated rate of application. 4 days after the treatment, the plants are inoculated with an aqueous spore suspension of Erysiphe graminis f. sp.hordei. The plants are subsequently placed in a greenhouse at 70% relative atmospheric humidity and 18° C.
The test is evaluated 7 days after the inoculation. 0% means an efficacy which corresponds to that of the control while an efficacy of 100% means that no disease is observed.

In data set [4] the test system is green rice leaf hopper (Nephotettix cincticeps). The data set can be described thus: Nephotettix test. Format: in vivo. Particulars: 1000 ppm, rice seedlings (Oryza sativa) dipped, infested with larvae. As for the experimental part:
To produce a suitable preparation of active compound, 1 part by weight of active compound is mixed with the stated amount of solvent and the stated amount of emulsifier, and the concentrate is diluted with water to the desired concentration.
Rice seedlings (Oryza sativa) are treated by being dipped into the preparation of active compound of the desired concentration and are infested with larvae of the green rice leaf hopper (Nephotettix cincticeps) while the seedlings are still moist.
After the desired period of time, the kill in % is detemruned. 100% means that all leaf hoppers have been killed; 0% means that none of the leaf hoppers have been killed.

Consider `COC(=O)C1C2C=CC(O2)C1C(=O)OC` (centres unmarked), for which the “kill in % after 7 days” value in data set [1] stood at 90%.

With `O=C(O)C1C2C=CC(O2)C1C(=O)O` (centres unmarked), in the data set with Myzus persicae, the “Kill in % after 6 days” value amounted to 80%.

With `O=C(O)C1C2CCC(O2)C1C(=O)O` (centres unmarked), the “kill in % after 7 days” value in data set [2] is reported as 100%.

In the data set with Meloidogyne incognita, `CC(CNC(=O)C1C2CCC(O2)C1C(=O)O)c1ccccc1` (centres unmarked) yielded a kill in % of 100%.

Take `Cc1cc(C)c(NC(=O)C2C3CCC(C)(O3)C2C(=O)O)c(C)c1` (centres unmarked): the melting point worked out at 168 °C.

For `O=C(O)C1C2C=CC(O2)C1C(=O)NCCCc1ccccc1` (centres unmarked), in data set [3], the Efficacy in % came to 70%.

In data set [3], `O=C(O)C1C2C=CC(O2)C1C(=O)Nc1cccc(Cl)c1` (centres unmarked) had an Efficacy in % of 70%.

With `O=C(O)C1C2C=CC(O2)C1C(=O)NCc1cc(Cl)nc(Cl)c1` (centres unmarked), the Efficacy in % in data set [3] is listed as 70%.

Regarding `CC(C)(CNC(=O)C1C2C=CC(O2)C1C(=O)O)n1cncn1` (centres unmarked), in data set [3], the Efficacy in % came to 70%.

For `COc1ccccc1NC(=O)C1C2CCC(O2)C1C(=O)O` (centres unmarked), in data set [3], the Efficacy in % worked out at 70%.

`O=C(O)C1C2CCC(O2)C1C(=O)NCCc1ccccc1` (centres unmarked) returned an Efficacy in % in data set [3] of 90%.

In data set [3], `CC(Cc1ccccc1)NC(=O)C1C2CCC(O2)C1C(=O)O` (centres unmarked) yielded an Efficacy in % of 80%.

Take `CCOC(=O)C1C2C=CC(O2)C1C(=O)Sc1ccccc1NC(N)=O` (centres unmarked): the “Kill in % after 6 days” value in data set [4] was 100%.

With `O=C(O)[C@@H]1C2CCC(O2)[C@@H]1C(=O)O`, the “Kill in % after 6 days” value in data set [4] amounted to 100%.
